Assay results published in PubChem BioAssay (NCI).
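GI50: concentration for 50% inhibition of growth. TGI: concentration producing complete growth inhibition.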

Tests used:
Assay in all cases: NCI-60 cell line screen, 384-well format
786-0 renal = tested on: 786-0 renal
A498 renal = tested on: A498 renal
A549 NSCLC = tested on: A549 NSCLC
ACHN renal = tested on: ACHN renal
BT-549 breast = tested on: BT-549 breast
CAKI-1 renal = tested on: CAKI-1 renal
CCRF-CEM leukemia = tested on: CCRF-CEM leukemia
COLO 205 colon = tested on: COLO 205 colon
DU-145 prostate = tested on: DU-145 prostate
EKVX NSCLC = tested on: EKVX NSCLC
HCC-2998 colon = tested on: HCC-2998 colon
HCT-15 colon = tested on: HCT-15 colon
HL-60(TB) leukemia = tested on: HL-60(TB) leukemia
HOP-62 NSCLC = tested on: HOP-62 NSCLC
HOP-92 NSCLC = tested on: HOP-92 NSCLC
HS 578T breast = tested on: HS 578T breast
HT29 colon = tested on: HT29 colon
IGROV1 ovarian = tested on: IGROV1 ovarian
K-562 leukemia = tested on: K-562 leukemia
KM12 colon = tested on: KM12 colon
LOX IMVI melanoma = tested on: LOX IMVI melanoma
M14 melanoma = tested on: M14 melanoma
MALME-3M melanoma = tested on: MALME-3M melanoma
MCF7 breast = tested on: MCF7 breast
MDA-MB-231 breast = tested on: MDA-MB-231 breast
MDA-MB-435 melanoma = tested on: MDA-MB-435 melanoma
MDA-MB-468 breast = tested on: MDA-MB-468 breast
MOLT-4 leukemia = tested on: MOLT-4 leukemia
NCI-H226 lung = tested on: NCI-H226 lung
NCI-H23 lung = tested on: NCI-H23 lung
NCI-H322M lung = tested on: NCI-H322M lung
NCI-H460 NSCLC = tested on: NCI-H460 NSCLC
NCI-H522 lung = tested on: NCI-H522 lung
NCI/ADR-RES ovarian = tested on: NCI/ADR-RES ovarian
OVCAR-3 ovarian = tested on: OVCAR-3 ovarian
OVCAR-4 ovarian = tested on: OVCAR-4 ovarian
OVCAR-5 ovarian = tested on: OVCAR-5 ovarian
OVCAR-8 ovarian = tested on: OVCAR-8 ovarian
PC-3 prostate = tested on: PC-3 prostate
RPMI-8226 leukemia = tested on: RPMI-8226 leukemia
RXF 393 renal = tested on: RXF 393 renal
SF-268 CNS = tested on: SF-268 CNS
SF-295 CNS = tested on: SF-295 CNS
SF-539 CNS = tested on: SF-539 CNS
SK-MEL-28 melanoma = tested on: SK-MEL-28 melanoma
SK-MEL-5 melanoma = tested on: SK-MEL-5 melanoma
SK-OV-3 ovarian = tested on: SK-OV-3 ovarian
SN12C renal = tested on: SN12C renal
SNB-19 CNS = tested on: SNB-19 CNS
SNB-75 CNS = tested on: SNB-75 CNS
SR leukemia = tested on: SR leukemia
SW-620 colon = tested on: SW-620 colon
T-47D breast = tested on: T-47D breast
TK-10 renal = tested on: TK-10 renal
UACC-257 melanoma = tested on: UACC-257 melanoma
UACC-62 melanoma = tested on: UACC-62 melanoma
UO-31 renal = tested on: UO-31 renal

For `C[C@@H](NC(=O)c1ccc(F)cc1)c1ccc2c(c1)CCN2C(=O)C1CCOCC1`, the GI50 ([…]-0 renal) was over 100 µM, the TGI (786-0 renal) was over 100 µM and the GI50 (A498 renal) was over 100 µM. It also gave a TGI (A498 renal) of over 100 µM, a GI50 (A549 NSCLC) of over 100 µM and a TGI (A549 NSCLC) of over 100 µM. For the same compound, the GI50 (ACHN renal) was over 100 µM, the TGI (ACHN renal) was over 100 µM and the GI50 (BT-549 breast) was over 100 µM. The TGI (BT-549 breast) was over 100 µM, the GI50 (CAKI-1 renal) was over 100 µM and the TGI (CAKI-1 renal) was over 100 µM. For the same compound, the GI50 (CCRF-CEM leukemia) was over 100 µM, the TGI (CCRF-CEM leukemia) was over 100 µM and the GI50 (COLO 205 colon) was over 100 µM. For the same compound, the TGI (COLO 205 colon) was over 100 µM, the GI50 (DU-145 prostate) was over 100 µM and the TGI (DU-145 prostate) was over 100 µM. For the same compound, the GI50 (EKVX NSCLC) was over 100 µM, the TGI (EKVX NSCLC) was over 100 µM and the GI50 (HCC-2998 colon) was over 100 µM. It also gave a TGI (HCC-2998 colon) of over 100 µM, a GI50 (HCT-15 colon) of over 100 µM and a TGI (HCT-15 colon) of over 100 µM. It also gave a GI50 (HL-60(TB) leukemia) of over 100 µM, a TGI (HL-60(TB) leukemia) of over 100 µM and a GI50 (HOP-62 NSCLC) of over 100 µM. For the same compound, the TGI (HOP-62 NSCLC) was over 100 µM, the GI50 (HOP-92 NSCLC) was over 100 µM and the TGI (HOP-92 NSCLC) was over 100 µM. It also gave a GI50 (HS 578T breast) of over 100 µM, a TGI (HS 578T breast) of over 100 µM and a GI50 (HT29 colon) of over 100 µM. It also gave a TGI (HT29 colon) of over 100 µM, a GI50 (IGROV1 ovarian) of over 100 µM and a TGI (IGROV1 ovarian) of over 100 µM. The GI50 (K-562 leukemia) was over 100 µM, the TGI (K-562 leukemia) was over 100 µM and the GI50 (KM12 colon) was over 100 µM. The TGI (KM12 colon) was over 100 µM, the GI50 (LOX IMVI melanoma) was over 100 µM and the TGI (LOX IMVI melanoma) was over 100 µM. It also gave a GI50 (M14 melanoma) of over 100 µM, a TGI (M14 melanoma) of over 100 µM and a GI50 (MALME-3M melanoma) of over 100 µM. It also gave a TGI (MALME-3M melanoma) of over 100 µM, a GI50 (MCF7 breast) of over 100 µM and a TGI (MCF7 breast) of over 100 µM. It also gave a GI50 (MDA-MB-231 breast) of over 100 µM, a TGI (MDA-MB-231 breast) of over 100 µM and a GI50 (MDA-MB-435 melanoma) of over 100 µM. It also gave a TGI (MDA-MB-435 melanoma) of over 100 µM, a GI50 (MDA-MB-468 breast) of 34.4 µM and a TGI (MDA-MB-468 breast) of over 100 µM. The GI50 (MOLT-4 leukemia) was over 100 µM, the TGI (MOLT-4 leukemia) was over 100 µM and the GI50 (NCI-H226 lung) was over 100 µM. For the same compound, the TGI (NCI-H226 lung) was over 100 µM, the GI50 (NCI-H23 lung) was over 100 µM and the TGI (NCI-H23 lung) was over 100 µM. The GI50 (NCI-H322M lung) was over 100 µM, the TGI (NCI-H322M lung) was over 100 µM and the GI50 (NCI-H460 NSCLC) was over 100 µM. It also gave a TGI (NCI-H460 NSCLC) of over 100 µM, a GI50 (NCI-H522 lung) of over 100 µM and a TGI (NCI-H522 lung) of over 100 µM. The GI50 (NCI/ADR-RES ovarian) was over 100 µM, the TGI (NCI/ADR-RES ovarian) was over 100 µM and the GI50 (OVCAR-3 ovarian) was over 100 µM. The TGI (OVCAR-3 ovarian) was over 100 µM, the GI50 (OVCAR-4 ovarian) was 80.7 µM and the TGI (OVCAR-4 ovarian) was over 100 µM. For the same compound, the GI50 (OVCAR-5 ovarian) was over 100 µM, the TGI (OVCAR-5 ovarian) was over 100 µM and the GI50 (OVCAR-8 ovarian) was over 100 µM. The TGI (OVCAR-8 ovarian) was over 100 µM, the GI50 (PC-3 prostate) was over 100 µM and the TGI (PC-3 prostate) was over 100 µM. It also gave a GI50 (RPMI-8226 leukemia) of 91.4 µM, a TGI (RPMI-8226 leukemia) of over 100 µM and a GI50 (RXF 393 renal) of over 100 µM. For the same compound, the TGI (RXF 393 renal) was over 100 µM, the GI50 (SF-268 CNS) was over 100 µM and the TGI (SF-268 CNS) was over 100 µM. The GI50 (SF-295 CNS) was over 100 µM, the TGI (SF-295 CNS) was over 100 µM and the GI50 (SF-539 CNS) was over 100 µM. For the same compound, the TGI (SF-539 CNS) was over 100 µM, the GI50 (SK-MEL-28 melanoma) was over 100 µM and the TGI (SK-MEL-28 melanoma) was over 100 µM. For the same compound, the GI50 (SK-MEL-5 melanoma) was over 100 µM, the TGI (SK-MEL-5 melanoma) was over 100 µM and the GI50 (SK-OV-3 ovarian) was over 100 µM. The TGI (SK-OV-3 ovarian) was over 100 µM, the GI50 (SN12C renal) was over 100 µM and the TGI (SN12C renal) was over 100 µM. It also gave a GI50 (SNB-19 CNS) of over 100 µM, a TGI (SNB-19 CNS) of over 100 µM and a GI50 (SNB-75 CNS) of over 100 µM. For the same compound, the TGI (SNB-75 CNS) was over 100 µM, the GI50 (SR leukemia) was over 100 µM and the TGI (SR leukemia) was over 100 µM. The GI50 (SW-620 colon) was over 100 µM, the TGI (SW-620 colon) was over 100 µM and the GI50 (T-47D breast) was 58.6 µM. The TGI (T-47D breast) was over 100 µM, the GI50 (TK-10 renal) was over 100 µM and the TGI (TK-10 renal) was over 100 µM. For the same compound, the GI50 (UACC-257 melanoma) was over 100 µM, the TGI (UACC-257 melanoma) was over 100 µM and the GI50 (UACC-62 melanoma) was over 100 µM. The TGI (UACC-62 melanoma) was over 100 µM, the GI50 (UO-31 renal) was over 100 µM and the TGI (UO-31 renal) was over 100 µM.
